Results reported in patent US20210253567A1, “AMORPHOUS AND CRYSTALLINE FORMS OF VALBENAZINE SALT” (SUZHOU PENGXU PHARMATECH CO., LTD., priority 2018, published 2021).

What was measured:
[1] = Stability of valbenazine salts, general statement
[2] = Stability HPLC data summary of Form A1 of valbenazine oxalate (appearance, assay, HPLC, chiral HPLC, moisture on storage); type: physicochemical; settings: 2~8° C.; for Appearance: double PE bags sealed in laminated aluminum foil bag
Source text: Stability Data of Form A1 of Valbenazine Oxalate [table]

valbenazine oxalate [Form A1 of valbenazine oxalate]
stability (in words) [1]: good stability
Assay (Anhydrous) ([2]; 0 months): 100.1%
Chiral HPLC Chiral imp-1 ([2]; 0 months): 0.01%
Chiral HPLC Chiral imp-2 ([2]; 0 months): 0.04%
Chiral HPLC Chiral imp-3 ([2]; 0 months): 0.03%
Chiral HPLC Valbenazine ([2]; 0 months): 99.93%
HPLC Imp-1 (LSI) ([2]; 0 months): 0.03%
HPLC Imp-2 ([2]; 0 months): 0.01%
HPLC Imp-3 ([2]; 0 months): 0.02%
HPLC Imp-4 ([2]; 0 months): 0.02%
HPLC Imp-5 ([2]; 0 months): 0.01%
HPLC Imp-7 ([2]; 0 months): 0.01%
HPLC Valbenazine ([2]; 0 months): 99.81%
Moisture ([2]; 0 months): 0.12%
Assay (Anhydrous) ([2]; 0.5 months): 100.8%
Chiral HPLC Chiral imp-1 ([2]; 0.5 months): 0.01%
Chiral HPLC Chiral imp-2 ([2]; 0.5 months): 0.04%
Chiral HPLC Chiral imp-3 ([2]; 0.5 months): 0.03%
Chiral HPLC Valbenazine ([2]; 0.5 months): 99.93%
HPLC Imp-1 (LSI) ([2]; 0.5 months): 0.03%
HPLC Imp-3 ([2]; 0.5 months): 0.03%
HPLC Imp-5 ([2]; 0.5 months): 0.01%
HPLC Imp-7 ([2]; 0.5 months): 0.02%
HPLC Valbenazine ([2]; 0.5 months): 99.84%
Moisture ([2]; 0.5 months): 0.2%
Assay (Anhydrous) ([2]; 1 months): 101.0%
Chiral HPLC Chiral imp-1 ([2]; 1 months): 0.01%
Chiral HPLC Chiral imp-2 ([2]; 1 months): 0.04%
Chiral HPLC Valbenazine ([2]; 1 months): 99.95%
HPLC Imp-1 (LSI) ([2]; 1 months): 0.03%
HPLC Imp-2 ([2]; 1 months): 0.01%
HPLC Imp-3 ([2]; 1 months): 0.02%
HPLC Imp-4 ([2]; 1 months): 0.01%
HPLC Imp-5 ([2]; 1 months): 0.01%
HPLC Imp-7 ([2]; 1 months): 0.01%
HPLC Valbenazine ([2]; 1 months): 99.84%
Moisture ([2]; 1 months): 0.19%
Assay (Anhydrous) ([2]; 3 months): 100.33%
Chiral HPLC Chiral imp-1 ([2]; 3 months): 0.01%
Chiral HPLC Chiral imp-2 ([2]; 3 months): 0.07%
Chiral HPLC Chiral imp-3 ([2]; 3 months): 0.02%
Chiral HPLC Valbenazine ([2]; 3 months): 99.91%
HPLC Imp-1 (LSI) ([2]; 3 months): 0.04%
HPLC Imp-2 ([2]; 3 months): 0.02%
HPLC Imp-3 ([2]; 3 months): 0.04%
HPLC Imp-4 ([2]; 3 months): 0.03%
HPLC Imp-5 ([2]; 3 months): 0.02%
HPLC Imp-7 ([2]; 3 months): 0.01%
HPLC Valbenazine ([2]; 3 months): 99.78%
Moisture ([2]; 3 months): 0.4%
Appearance ([2]; 0 months): White
Appearance ([2]; 0.5 months): White solid
Appearance ([2]; 1 months): White solid
Appearance ([2]; 3 months): White solid
